Reference: patent US8217029B2, “Oxazolidinone antibiotics” (Actelion Pharmaceuticals Ltd, priority 2007, dated 2012)
Values after ≈ are worked out from the molar mass of the structure shown.

Tested on: S aureus A798
Experiment: Minimal inhibitory concentration (MIC), microdilution method in cation-adjusted Mueller-Hinton Broth following NCCLS guidelines
Type: cell-based
Settings: pH of test medium 7.2-7.3
Protocol: These assays have been performed following the description given in “Methods for dilution Antimicrobial Susceptibility Tests for Bacteria that Grow Aerobically, 4th ed.; Approved standard: NCCLS Document M7-A4; National Committee for Clinical Laboratory Standards Villanova, Pa., USA, 1997”. Minimal inhibitory concentrations (MICs; mg/l) were determined in cation-adjusted Mueller-Hinton Broth by a microdilution method following NCCLS guidelines (National Committee for Clinical Laboratory Standards. Methods for Dilution Antimicrobial Susceptibility). The pH of the test medium was 7.2-7.3. All Example compounds were tested against several Gram positive and Gram negative bacteria.

| MIC [mg/L] | MIC S aureus A798 | Structure (SMILES) |
| --- | --- | --- |
| 0.125 (≈ 0.257 µM) | – | COc1ccc2nccc(N3CCN(CC4CN(c5ccc6ccc(=O)[nH]c6c5)C(=O)O4)CC3)c2n1 (racemic) [Example 111, (RS)-7-{5-[4-(6-Methoxy-[1,5]naphthyridin-4-yl)-piperazin-1-ylmethyl]-2-oxo-oxazolidin-3-yl}-1H-quinolin-2-one] |
| ≤ 0.031 | – | COc1ccc2nccc(N3CCN(CC4CN(c5ccc6c(n5)NC(=O)CO6)C(=O)O4)CC3)c2n1 (racemic) [Example 113, (RS)-6-{5-[4-(6-Methoxy-[1,5]naphthyridin-4-yl)-piperazin-1-ylmethyl]-2-oxo-oxazolidin-3-yl}-4H-pyrido[3,2-b][1,4]oxazin-3-one] |
| 0.063 (≈ 0.135 µM) | – | COc1ccc2nccc(N3CC(CNCCC4CN(c5ccc(C)c(F)c5)C(=O)O4)C3)c2n1 (racemic) [Example 149, (RS)-3-(3-Fluoro-4-methyl-phenyl)-5-(2-{[1-(6-methoxy-[1,5]naphthyridin-4-yl)-azetidin-3-ylmethyl]-amino}-ethyl)-oxazolidin-2-one] |
| ≤ 0.031 | – | CCOC(=O)[C@@H]1CN(c2ccnc3ccc(OC)nc23)C[C@H]1NC[C@H]1CN(c2ccc3c(c2)NC(=O)CS3)C(=O)O1 (relative stereo) [Example 73, (3R*,4S*)-1-(6-Methoxy-[1,5]naphthyridin-4-yl)-4-{[(S)-2-oxo-3-(3-oxo-3,4-dihydro-2H-benzo[1,4]thiazin-6-yl)-oxazolidin-5-ylmethyl]amino}-pyrrolidine-3-carboxylic acid ethyl ester] |
| 0.5 (≈ 0.908 µM) | – | COc1ccc2nccc(N3C[C@@H](NC[C@@H]4CN(c5ccc6c(c5)NC(=O)CS6)C(=O)O4)[C@H](C(=O)O)C3)c2n1 (relative stereo) [Example 74, (3R*,4S*)-1-(6-Methoxy-[1,5]naphthyridin-4-yl)-4-{[(R)-2-oxo-3-(3-oxo-3,4-dihydro-2H-benzo[1,4]thiazin-6-yl)-oxazolidin-5-ylmethyl]-amino}-pyrrolidine-3-carboxylic acid] |
| ≤ 0.031 | – | COc1ccc2nccc(N3C[C@@H](NC[C@@H]4CN(c5ccc6c(c5)NC(=O)CS6)C(=O)O4)[C@H](OC)C3)c2n1 (relative stereo) [Example 75, 6-((R)-5-{[(3R*,4R*)-4-Methoxy-1-(6-methoxy-[1,5]naphthyridin-4-yl)-pyrrolidin-3-ylamino]-methyl}-2-oxo-oxazolidin-3-yl)-4H-benzo[1,4]thiazin-3-one] |
| ≤ 0.031 | – | COc1ccc2nccc(N3C[C@@H](O)[C@H](NC[C@@H]4CN(c5ccc6c(c5)NC(=O)CS6)C(=O)O4)C3)c2n1 (relative stereo) [Example 76, 6-((R)-5-{[(3R*,4R*)-4-Hydroxy-1-(6-methoxy-[1,5]naphthyridin-4-yl)-pyrrolidin-3-ylamino]-methyl}-2-oxo-oxazolidin-3-yl)-4H-benzo[1,4]thiazin-3-one] |
| 0.25 (≈ 0.507 µM) | – | COc1ccc2nccc(N3C[C@@H](O)[C@H](NC[C@@H]4CN(c5ccc6c(c5)OCCO6)C(=O)O4)C3)c2n1 (relative stereo) [Example 77, (R)-3-(2,3-Dihydro-benzo[1,4]dioxin-6-yl)-5-{[(3R*,4R*)-4-hydroxy-1-(6-methoxy-[1,5]naphthyridin-4-yl)-pyrrolidin-3-ylamino]-methyl}-oxazolidin-2-one] |
| – | <=0.031 mg/l | COc1ccc2nccc(N3CC[C@@H]4CN(C[C@@H]5CN(c6ccc7c(c6)NC(=O)CS7)C(=O)O5)C[C@@H]43)c2n1 (relative stereo) [Example 91, 6-{{(R)-5-[(3aR*,6aR*)-1-(6-Methoxy-[1,5]naphthyridin-4-yl)-hexahydro-pyrrolo[3,4-b]pyrrol-5-yl]-methyl}-2-oxo-oxazolidin-3-yl}-4H-benzo[1,4]thiazin-3-one] |
| – | 0.063 mg/L (≈ 0.135 µM) | COc1ccc2nccc(N3CCN(C[C@H]4CN(c5ccc(C)c(F)c5)C(=O)O4)C(=O)C3)c2n1 (single isomer, unassigned) [Example 100, [(S)-3-(3-Fluoro-4-methyl-phenyl)-2-oxo-oxazolidin-5-ylmethyl]-4-(6-methoxy-[1,5]naphthyridin-4-yl)-piperazin-2-one or [(R)-3-(3-Fluoro-4-methyl-phenyl)-2-oxo-oxazolidin-5-ylmethyl]-4-(6-methoxy-[1,5]naphthyridin-4-yl)-piperazin-2-one] |
| 0.25 (≈ 0.513 µM) | – | COc1ccc2nccc(N3CCN(C[C@@H]4CN(c5cccc(C(F)(F)F)c5)C(=O)O4)CC3)c2n1 [Example 16, (R)-5-[4-(6-Methoxy-[1,5]naphthyridin-4-yl)-piperazin-1-ylmethyl]-3-(3-trifluoromethyl-phenyl)-oxazolidin-2-one] |

The remaining lines, values behind:

| Structure (SMILES) | MIC [mg/L] | MIC S aureus A798 |
| --- | --- | --- |
| COc1ccc2nccc(N3CC(CNC[C@H]4CN(c5ccc6c(c5)OCCO6)C(=O)O4)C3)c2n1 [Example 1, (S)-3-(2,3-Dihydro-benzo[1,4]dioxin-6-yl)-5-({[1-(6-methoxy-[1,5]naphthyridin-4-yl)-azetidin-3-ylmethyl]-amino}-methyl)-oxazolidin-2-one] | 0.25 (≈ 0.524 µM) | – |
| COc1ccc2nccc(N3CC(CNC(=O)[C@@H]4CN(c5ccc6c(c5)OCCO6)C(=O)O4)C3)c2n1 [Example 2, (S)-3-(2,3-Dihydro-benzo[1,4]dioxin-6-yl)-2-oxo-oxazolidine-5-carboxylic acid[1-(6-methoxy-[1,5]naphthyridin-4-yl)-azetidin-3-ylmethyl]-amide] | – | 4 mg/L (≈ 8.14 µM) |
| COc1ccc2nccc(N3CCN(C[C@@H]4CN(c5ccc6c(c5)OCCO6)C(=O)O4)CC3)c2n1 [Example 9, (R)-3-(2,3-Dihydro-benzo[1,4]dioxin-6-yl)-5-[4-(6-methoxy-[1,5]naphthyridin-4-yl)-piperazin-1-ylmethyl]-oxazolidin-2-one] | ≤ 0.031 | – |
| COc1ccc2nccc(N3CCN(C[C@@H]4CN(c5cccc(OC(F)(F)F)c5)C(=O)O4)CC3)c2n1 [Example 10, (R)-5-[4-(6-Methoxy-[1,5]naphthyridin-4-yl)-piperazin-1-ylmethyl]-3-(3-trifluoromethoxy-phenyl)-oxazolidin-2-one] | 0.25 (≈ 0.497 µM) | – |
| COc1ccc2nccc(N3CCN(C[C@@H]4CN(c5ccc(OC(F)(F)F)cc5)C(=O)O4)CC3)c2n1 [Example 11, (R)-5-[4-(6-Methoxy-[1,5]naphthyridin-4-yl)-piperazin-1-ylmethyl]-3-(4-trifluoromethoxy-phenyl)-oxazolidin-2-one] | 0.063 (≈ 0.125 µM) | – |
| COc1ccc2nccc(N3CCN(C[C@@H]4CN(c5ccccc5)C(=O)O4)CC3)c2n1 [Example 12, (R)-5-[4-(6-Methoxy-[1,5]naphthyridin-4-yl)-piperazin-1-ylmethyl]-3-phenyl-oxazolidin-2-one] | ≤ 0.031 | – |
| COc1ccc2nccc(N3CCN(C[C@@H]4CN(c5ccc(Br)c(F)c5)C(=O)O4)CC3)c2n1 [Example 13, (R)-3-(4-Bromo-3-fluoro-phenyl)-5-[4-(6-methoxy-[1,5]naphthyridin-4-yl)-piperazin-1-ylmethyl]-oxazolidin-2-one] | ≤ 0.031 | – |
| COc1ccc2nccc(N3CCN(C[C@@H]4CN(c5ccc(OC)c(OC)c5)C(=O)O4)CC3)c2n1 [Example 14, (R)-3-(3,4-Dimethoxy-phenyl)-5-[4-(6-methoxy-[1,5]naphthyridin-4-yl)-piperazin-1-ylmethyl]-oxazolidin-2-one] | 2 (≈ 4.17 µM) | – |
| COc1ccc2nccc(N3CCN(C[C@@H]4CN(c5ccc(F)cc5)C(=O)O4)CC3)c2n1 [Example 15, (R)-3-(4-Fluoro-phenyl)-5-[4-(6-methoxy-[1,5]naphthyridin-4-yl)-piperazin-1-ylmethyl]-oxazolidin-2-one] | 0.25 (≈ 0.571 µM) | – |
